What was measured:
HAP1 MTAP-intact = test: SDMA in-cell western assay, HAP1 MTAP-intact cell line; type: cell-based; conditions: Homo sapiens
In short: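 Symmetric dimethylarginine (SDMA) levels were measured by in-cell western in an isogenic HAP1 pair, one expressing endogenous MTAP and one MTAP-null, and IC50 values were derived for each line. Compounds whose IC50 ratio between the lines is 3-fold or more are classed as MTAP-selective.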

PRMT5 [1] = molecular target: T1, PRMT5 (Homo sapiens, UniProt O14744); test: PRMT5 IC50 assay with no cofactor; type: biochemical
T1 construct: purchased Viva (custom protein)
In short: (§1)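 IC50 values were measured against human PRMT5 with SAM, with MTA, or with no cofactor. Ki was derived from IC50 as Ki=IC50/1.5 with SAM and Ki=IC50/13.5 with MTA, and the Ki(SAM)/Ki(MTA) ratio was then taken.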

PRMT5 [2] = molecular target: T1, PRMT5; test: PRMT5 IC50 assay in the presence of SAM as cofactor; type: biochemical
In short: as §1

PRMT5 [3] = molecular target: T1, PRMT5; test: PRMT5 IC50 assay in the presence of MTA as cofactor; type: biochemical; conditions: for IC50: PRMT5, MTA as cofactor
In short: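 Ki conversion: SAM arm, Ki=IC50/1.5; MTA arm, Ki=IC50/13.5. No-cofactor arm reported as IC50 only. Selectivity expressed as Ki(SAM)/Ki(MTA).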

HAP1 MTAP-deleted = test: SDMA in-cell western assay, HAP1 MTAP-deleted cell line; type: cell-based; conditions: for IC50: Homo sapiens, HAP1 MTAP-deleted cell line; for MTAP Intact/Deleted Ratio: IC50 ratio HAP1 MTAP-intact / HAP1 MTAP-deleted
In short: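 Symmetric dimethylarginine (SDMA) levels were measured by in-cell western in MTAP-null HAP1 cells, one half of an MTAP-isogenic pair whose partner line expresses endogenous MTAP. Compound potency is reported as IC50.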

[4] = ratio between Ki in the presence of SAM and Ki in the presence of MTA
[5] = ratio between the Ki in the presence of SAM and the Ki in the presence of MTA

T1 sequence (O14744 whole entry): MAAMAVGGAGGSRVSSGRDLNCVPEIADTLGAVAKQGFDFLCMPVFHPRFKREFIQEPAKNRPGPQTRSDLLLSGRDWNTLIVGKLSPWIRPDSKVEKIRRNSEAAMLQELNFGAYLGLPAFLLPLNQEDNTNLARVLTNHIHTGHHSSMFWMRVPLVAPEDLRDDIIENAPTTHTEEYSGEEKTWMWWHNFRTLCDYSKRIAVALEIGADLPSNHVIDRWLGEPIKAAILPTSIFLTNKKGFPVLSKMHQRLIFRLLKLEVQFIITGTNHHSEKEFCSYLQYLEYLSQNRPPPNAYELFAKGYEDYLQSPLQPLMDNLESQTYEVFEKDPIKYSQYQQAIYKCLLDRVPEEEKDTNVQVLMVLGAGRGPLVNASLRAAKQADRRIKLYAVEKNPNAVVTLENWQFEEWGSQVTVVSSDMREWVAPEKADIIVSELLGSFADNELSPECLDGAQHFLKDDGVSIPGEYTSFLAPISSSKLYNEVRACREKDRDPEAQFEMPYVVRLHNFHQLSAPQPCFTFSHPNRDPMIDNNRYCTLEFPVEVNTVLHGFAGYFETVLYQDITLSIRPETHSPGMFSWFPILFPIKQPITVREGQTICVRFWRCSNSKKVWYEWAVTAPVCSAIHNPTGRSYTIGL
T1 sequence (Q9BQA1 whole entry partner): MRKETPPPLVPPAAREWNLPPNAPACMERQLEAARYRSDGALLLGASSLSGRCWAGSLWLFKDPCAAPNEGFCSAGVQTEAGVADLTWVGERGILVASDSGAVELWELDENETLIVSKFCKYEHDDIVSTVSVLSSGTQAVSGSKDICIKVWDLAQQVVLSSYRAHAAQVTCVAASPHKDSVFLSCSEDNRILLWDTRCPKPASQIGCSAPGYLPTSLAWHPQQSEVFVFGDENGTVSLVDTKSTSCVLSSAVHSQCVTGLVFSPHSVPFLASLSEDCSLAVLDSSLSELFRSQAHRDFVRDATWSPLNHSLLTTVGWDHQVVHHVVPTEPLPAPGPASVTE

Compound	IC50 (HAP1 MTAP-intact) [nM]	IC50 (PRMT5 [1]; read-out: No Co-factor IC50) [nM]	IC50 (PRMT5 [2]) [nM]	IC50 (PRMT5 [3]) [nM]	SAM/MTA Ratio (PRMT5 [3]; [4])	IC50 (HAP1 MTAP-deleted) [nM]	MTAP Intact/Deleted Ratio (HAP1 MTAP-deleted)	IC50 (PRMT5 [1]) [nM]	SAM/MTA Ratio (PRMT5 [3]; [5])
O=C(NC[C@H](O)CN1CCc2c(ccc(OCc3cnco3)c2Cl)C1)c1ccnc(NC2CCC(F)CC2)c1 (stereo partly drawn) [Compound 311, (S)—N-(3-(5-chloro-6-(oxazol-5-ylmethoxy)-3N-dihydroisoquinolin-2(1H)-yl)-2-hydroxypropyl)-2-((4-fluorocyclohexyl)amino)isonicotinamide]	≥ 10000	≥ 5000	50 to 500	50 to 500	A (a Ki ratio greater than or equal to 10 fold between the Ki in the presence of SAM and the Ki in the presence of MTA)	≥ 10000	C* (an IC50 ratio of less than 3 fold between the IC50 in the HAP1 MTAP-intact cell line and the HAP1 MTAP-deleted cell line)	–	–
O=C(NC[C@H](O)CN1CCc2cc(OCc3cnco3)ccc2C1)c1cc(NC2CCC2)nc(N2CCOCC2)c1 [Compound 292, (S)-2-(cyclobutylamino)-N-(2-hydroxy-3-(6-(oxazol-5-ylmethoxy)-3,4-dihydroisoquinolin-2(1H)-yl)propyl)-6-morpholinoisonicotinamide]	≥ 10000	500 to 5000	50 to 500	50 to 500	A (a Ki ratio greater than or equal to 10 fold between the Ki in the presence of SAM and the Ki in the presence of MTA)	1000 to 10000	C* (an IC50 ratio of less than 3 fold between the IC50 in the HAP1 MTAP-intact cell line and the HAP1 MTAP-deleted cell line)	–	–
Cc1ncoc1COc1ccc2c(c1)CCN(C[C@@H](O)CNC(=O)c1cc(NC3CCC3)nc(N3CCN(C(C)(C)C)CC3)c1)C2 [Compound 403, 2-(4-tert-butylpiperazin-1-yl)-6-(cyclobutylamino)-N-[(2S)-2-hydroxy-3-{6-[(4-methyl-1,3-oxazol-5-yl)methoxy]-1,2,3,4-tetrahydroisoquinolin-2-yl}propyl]pyridine-4-carboxamide]	< 1000	500 to 5000	50 to 500	50 to 500	A (a Ki ratio greater than or equal to 10 fold between the Ki in the presence of SAM and the Ki in the presence of MTA)	≥ 10000	C* (an IC50 ratio of less than 3 fold between the IC50 in the HAP1 MTAP-intact cell line and the HAP1 MTAP-deleted cell line)	–	–
CC(=O)N1CCN(c2nc(NC3COC3)cc(C(=O)NC[C@H](O)CN3CCc4cc(OCc5cnco5)ccc4C3)n2)CC1 [Compound 321]	≥ 10000	500 to 5000	50 to 500	50 to 500	A (a Ki ratio greater than or equal to 10 fold between the Ki in the presence of SAM and the Ki in the presence of MTA)	1000 to 10000	C* (an IC50 ratio of less than 3 fold between the IC50 in the HAP1 MTAP-intact cell line and the HAP1 MTAP-deleted cell line)	–	–
CC(=O)N1CCC(Nc2cncc(C(=O)NC[C@H](O)CN3CCc4cc(OCc5cnco5)ccc4C3)c2)CC1 [Compound 549, (S)-5-((1-acetylpiperidin-4-yl)amino)-N-(2-hydroxy-3-(6-(oxazol-5-ylmethoxy)-3,4-dihydroisoquinolin-2(1H)-yl)propyl)nicotinamide]	≥ 10000	–	50 to 500	50 to 500	–	≥ 10000	C* (an IC50 ratio of less than 3 fold between the IC50 in the HAP1 MTAP-intact cell line and the HAP1 MTAP-deleted cell line)	500 to 5000	A (a Ki ratio greater than or equal to 10 fold between the Ki in the presence of SAM and the Ki in the presence of MTA)
CC(=O)N1CCC(Nc2cccc(C(=O)NC[C@H](O)CN3CCc4cc(OCc5cnco5)ccc4C3)c2)CC1 [Compound 527]	≥ 10000	–	50 to 500	50 to 500	–	1000 to 10000	B* (an IC50 ratio greater than or equal to 3 fold but lower than 10 fold between the IC50 in the HAP1 MTAP-intact cell line and the HAP1 MTAP-deleted cell line)	500 to 5000	A (a Ki ratio greater than or equal to 10 fold between the Ki in the presence of SAM and the Ki in the presence of MTA)

From patent publication US11986471B2, “Compounds and methods of use” (Tango Therapeutics, Inc., priority 2018, dated 2024)
